Test results reported in patent EP0121972A2, “N-aryl-alpha-amino-carboxamides” (JANSSEN PHARMACEUTICA N.V., priority 1983, dated 1984).
Where a name gives a salt, the structure may show the parent alone.

System: multifocal ventricular arrhythmia
Test: Antiarrhythmic effect in dogs with ventricular arrhythmia after coronary artery ligation
Format: in vivo
Conditions: given intravenously; for minimal effective dose: Canis lupus familiaris, iv, lowest effective dose normalizing the cardial rhythm, about 16 hours after ligation of the anterior descendent branch of the left coronary artery, under neuroleptanalgesia, read-out: Antiarrhythmic effects in dogs LED in mg/kg body weight; for Antiarrhythmic effects in dogs duration: duration of action at the lowest effective dose, coronary-ligated dogs
Protocol: The compounds of formula (I) and their pharmaceutically acceptable acid addition salts and possible stereochemically isomeric forms thereof show excellent antiarrhythmic properties and as such they are useful in the normalization of irregular cardial rhythms. The antiarrhythmic effect of the compounds of this invention is clearly illustrated in the following experiment in dogs. The test was carried out under neuroleptanalgesia (1 ml per 10 kg body weight of fentanyl (0.4 mg/ml) and droperidol (20 mg/ml)).
The test compounds were given intravenously after a control period of 30 minutes.

| Compound | minimal effective dose [mg/kg] | Antiarrhythmic effects in dogs duration [min] |
| --- | --- | --- |
| CCN(CC)C1(C(=O)Nc2cc(Cl)ccc2C)CCN(C2CCCC2)CC1 [compound 166, N-(5-chloro-2-methylphenyl)-l-cyclopentyl-4-(diethylamino)-4-piperidinecarboxamide dihydrochloride hemihydrate] | 0.63 | 200 |
| Cc1cccc(C)c1NC(=O)C1(N(C)C)CCN([C@@H]2CCNC[C@H]2O)CC1 (relative stereo) [compound 210, trans-4-(dimethylamino)-N-(2,6-dimethylphenyl)-3'-hydroxy-[1,4'-bipiperidine]-4-carboxamide] | 0.16 | 25 |
| CCN(C)C1(C(=O)Nc2c(C)cccc2C)CCNCC1 [compound 73, N-(2,6-dimethylphenyl)-4-(ethylmethylamino)-4-piperidine carboxamide] | 0.63 | 30 |
| CCN1CCC(C(=O)Nc2c(C)cccc2C)(N(C)C)CC1 [compound 134] | 0.63 | 100 |
| Cc1cccc(C)c1NC(=O)C1(N(C)C)CCN([C@H]2CCC[C@@H]2NCCO)CC1 (relative stereo) [compound 231, trans-4-(dimethylamino)-N-(2,6-dimethylphenyl)-l-[2-[(2-hydroxyethyl)amino]cyclopentyl]-4-piperidinecarboxamide] | 0.16 | >230 |
| CCN(CC)C1(C(=O)Nc2c(C)cccc2C)CCN(C2CCCC2)CC1 [compound 54, 1-cyclopentyl-4-(diethylamino)-N-(2,6-dimethylphenyl)-4-piperidinecarboxamide] | 0.16 | 240 |
| COC1CNCCC1N1CCC(C(=O)Nc2c(C)cccc2C)(N(C)C)CC1 (stereo not drawn) [compound 85, cis-4-(dimethylamino)-N-(2,6-dimethylphenyl)-3'-methoxy-[l,4'-bipiperidine]-4-carboxamide] | 0.63 | 65 |
| Cc1cccc(C)c1NC(=O)C1(N(C)C)CCN([C@@H]2CCCC[C@H]2O)CC1 (relative stereo) [compound 89, trans-4-(dimethylamino)-N-(2,6-dimethylphenyl)-1-(2-hydroxycyclohexyl)-4-piperidinecarboxamide] | 0.04 | 240 |
| Cc1cccc(C)c1NC(=O)C1(N(C)C)CCN([C@H]2CCC[C@@H]2N)CC1 (relative stereo) [compound 217, trans-l-(2-aminocyclopentyl)-4-(dimethylamino)-N-(2,6-dimethylphenyl)-4-piperidinecarboxamide] | 0.31 | 50 |
| CCCN1CCC(C(=O)Nc2c(C)cccc2C)(N(C)C)CC1 [compound 136] | 0.16 | 15 |
| Cc1cccc(C)c1NC(=O)C1(N(C)C)CCN([C@@H]2CCC[C@H]2N(CCO)Cc2ccccc2)CC1 (relative stereo) [compound 225, trans-4-(dimethyl-amino)-N-(2,6-dimethylphenyl)-1-[2-[(2-hydroxyethyl)(phenylmethyl)-amino]cyclopentyl]-4-piperidinecarboxamide] | 0.08 | 140 |
| Cc1cccc(C)c1NC(=O)C1(N(C)C)CCNCC1 [compound 71, 4-(dimethylamino)-N-(2,6-dimethylphenyl)-4-piperidinecarboxamide] | 1.25 | 240 |
| CC(=O)N[C@H]1CCC[C@@H]1N1CCC(C(=O)Nc2c(C)cccc2C)(N(C)C)CC1 (relative stereo) [compound 219, trans-l-[2-(acetylamino)cyclopentyl]-4-(dimethylamino)-N-(2,6-dimethylphenyl)-4-piperidinecarboxamide] | 0.08 | 285 |
| Cc1cccc(C)c1NC(=O)C1(N(C)C)CCN([C@H]2CNCC[C@@H]2O)CC1 (relative stereo) [compound 211, trans-4-(dimethylamino)-N-(2,6-dimethylphenyl)-4'-hydroxy-[l,3'-bipiperidine]-4-carboxamide] | 0.63 | 160 |
| Cc1cccc(C)c1NC(=O)C1(N2CCOCC2)CCN([C@@H]2CCCC[C@H]2O)CC1 (relative stereo) [compound 127, trans-N-(2,6-dimethylphenyl)-l-(2-hydroxycyclohexyl)-4-(4-morpholinyl)-4-piperidinecarboxamide] | 0.31 | 55 |
